Results published in ChEMBL document CHEMBL4138213, “Synthesis and biological characterization of ubenimex-fluorouracil conjugates for anti-cancer therapy” (Eur J Med Chem, 2018).
pIC50: −log10 of the molar value. Active and inactive are the calls of the source. The calls are words filed in the database; no cut-off is given here.

What was measured:
PLC-PRF-5 [1] = assay: Antiproliferative activity against human PLC/PRF/5 cells after 48 hrs by MTT assay; settings: PLC-PRF-5, 48 h
Aminopeptidase N = biological target: T1, Aminopeptidase N (Sus scrofa, UniProt P15145); assay: Inhibition of porcine kidney CD13 using L-leucine-p-nitroanilide as substrate preincubated for 5 mins followed by substrate addition measured after 30 mins
T1 sequence (P15145 whole entry): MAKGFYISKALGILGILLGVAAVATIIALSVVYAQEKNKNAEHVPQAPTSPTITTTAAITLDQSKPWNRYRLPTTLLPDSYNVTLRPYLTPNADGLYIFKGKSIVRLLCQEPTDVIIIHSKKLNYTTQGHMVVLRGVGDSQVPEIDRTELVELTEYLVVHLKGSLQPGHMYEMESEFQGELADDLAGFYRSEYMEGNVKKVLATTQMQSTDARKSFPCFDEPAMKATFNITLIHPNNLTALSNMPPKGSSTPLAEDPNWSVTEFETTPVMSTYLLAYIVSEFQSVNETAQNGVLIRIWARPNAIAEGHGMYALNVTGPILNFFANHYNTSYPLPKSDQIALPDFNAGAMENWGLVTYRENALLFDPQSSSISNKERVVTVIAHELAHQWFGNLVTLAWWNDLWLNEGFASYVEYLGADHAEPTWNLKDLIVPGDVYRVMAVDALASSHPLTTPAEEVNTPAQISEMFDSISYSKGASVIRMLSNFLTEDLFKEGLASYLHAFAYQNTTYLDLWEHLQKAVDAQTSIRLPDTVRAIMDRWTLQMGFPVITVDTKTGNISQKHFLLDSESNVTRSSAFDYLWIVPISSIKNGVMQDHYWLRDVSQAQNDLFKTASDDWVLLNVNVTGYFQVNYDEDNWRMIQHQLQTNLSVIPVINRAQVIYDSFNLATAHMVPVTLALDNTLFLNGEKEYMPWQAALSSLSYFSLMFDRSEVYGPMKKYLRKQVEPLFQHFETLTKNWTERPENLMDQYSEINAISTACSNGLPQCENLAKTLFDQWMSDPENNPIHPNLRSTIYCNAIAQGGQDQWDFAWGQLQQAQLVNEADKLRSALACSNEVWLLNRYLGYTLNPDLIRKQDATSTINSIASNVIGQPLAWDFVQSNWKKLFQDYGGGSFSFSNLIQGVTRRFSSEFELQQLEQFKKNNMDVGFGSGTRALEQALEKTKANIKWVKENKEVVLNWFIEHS

cells = settings: Homo sapiens, ES-2, 48 h
Description: Antiproliferative activity against human ES2 cells after 48 hrs by MTT assay

[2] = Drug level in Wistar rat plasma treated with (5-fluoro-2,4-dioxo-3,4-dihydropyrimidin1(2H)-yl)methyl-2-((S)-2-((2S,3R)-3-amino-2-hydroxy-4-phenylbut-anamido)-4-methylpentanamido)acetate hydrochloride assessed as carboxylesterase-mediated compound formation at 80 mg/kg, iv by HPLC-MS/MS analysis; assay type: ADME, organism-based; settings: in vivo
[3] = (§1) Terminal Half life in Wistar rat at 80 mg/kg, iv after 0.05 to 24 hrs by HPLC-MS/MS analysis; assay type: ADME, organism-based; settings: Wistar, in vivo, read-out: beta t1/2 (converted)
Rattus norvegicus [4] = assay: VRT (0 to infinity) in Wistar rat at 80 mg/kg, iv after 0.05 to 24 hrs by HPLC-MS/MS analysis; assay type: ADME, organism-based; settings: in vivo
[5] = AUC (0 to infinity) in Wistar rat at 80 mg/kg, iv after 0.05 to 24 hrs by HPLC-MS/MS analysis; assay type: ADME, organism-based; parameters: dose 80 mg/kg, time infinity, route intravenous; settings: in vivo
[6] = Apparent clearance in Wistar rat at 80 mg/kg, iv after 0.05 to 24 hrs by HPLC-MS/MS analysis; assay type: ADME, organism-based; settings: in vivo, read-out: CL(app) (converted)
[7] = Cmax in Wistar rat at 80 mg/kg, iv after 0.05 to 24 hrs by HPLC-MS/MS analysis; assay type: ADME, organism-based; parameters: dose 80 mg/kg, route intravenous; settings: in vivo
[8] = (§2) MRT (0 to infinity) in Wistar rat at 80 mg/kg, iv after 0.05 to 24 hrs by HPLC-MS/MS analysis; assay type: ADME, organism-based; settings: Wistar, in vivo
[9] = Volume of distribution during elimination phase in Wistar rat at 80 mg/kg, iv after 0.05 to 24 hrs by HPLC-MS/MS analysis; assay type: ADME, organism-based; settings: in vivo, read-out: Vz
PLC-PRF-5 [10] = assay: Induction of apoptosis in human PLC/PRF/5 cells assessed as viable cells at 20 uM after 48 hrs by annexin-V-FITC/propidium iodide staining-based flow cytometric method (reference value: 93.7%); assay type: functional; settings: PLC-PRF-5, 48 h, read-out: Activity
[11] = Antiproliferative activity against human H7402 cells after 48 hrs by MTT assay; settings: H7402, 48 h
HCT-116 = assay: cells; settings: Homo sapiens, HCT-116, 48 h
PLC-PRF-5 [12] = assay: Induction of apoptosis in human PLC/PRF/5 cells assessed as necrotic cells at 20 uM after 48 hrs by annexin-V-FITC/propidium iodide staining-based flow cytometric method (reference value: 0.106%); assay type: functional
[13] = Drug metabolism in Wistar rat plasma assessed as peptidase-mediated ubenimex formation at 80 mg/kg, iv by HPLC-MS/MS analysis; assay type: ADME, organism-based; settings: in vivo
H22 [14] = assay: Antitumor activity against 5-FU-resistant […] cells xenografted in Kunming mouse at 82 mg/kg, iv after 14 days; assay type: functional, organism-based
[15] = Drug metabolism in human plasma assessed as 5-FU formation at 4 mg/ml after 8 hrs by HPLC method; assay type: ADME, cell-free
Mus musculus [16] = assay: Toxicity in Kunming mouse xenografted with 5-FU-resistant […] H22 cells assessed as body weight loss at 82 mg/kg, iv measured for 14 days during compound dosing; assay type: organism-based; settings: in vivo, 336 h
H22 [17] = assay: Antitumor activity against […] cells xenografted in iv dosed mouse administered 5 days per week for 2 weeks; assay type: functional, organism-based
A549 = assay: Antiproliferative activity against human A549 cells after 48 hrs by MTT assay; settings: A549, 48 h
Rattus norvegicus [18] = assay: as §1; assay type: ADME, organism-based; settings: in vivo
Homo sapiens = organism: Homo sapiens; assay: Antiinvasive activity in human ES2 cells at 5 ug/ml after 24 hrs by transwell assay; assay type: functional, cell-based
H22 [19] = assay: Antimetastatic activity in […] cells xenografted in iv dosed mouse assessed as decrease in lung metastasis nodus number administered 5 days followed by 2 days of withdrawal; assay type: functional, organism-based
U-937 = assay: cells; settings: Homo sapiens, U-937, 48 h
Description: Antiproliferative activity against human U937 cells after 48 hrs by MTT assay

[20] = Drug metabolism in Wistar rat plasma assessed as carboxylesterase-mediated 5-FU formation at 80 mg/kg, iv by HPLC-MS/MS analysis; assay type: ADME, organism-based; settings: in vivo
Thoracic aorta = assay: Antiangiogenic activity in Wistar rat thoracic aorta ring assessed as inhibition of microvessels sprouting at 20 ug/ml treated every other day for 9 days; assay type: functional, tissue-based
U-266 = assay: Antiproliferative activity against human U266 cells after 48 hrs by MTT assay; settings: U-266, 48 h
PLC-PRF-5 [21] = assay: Anticlonogenic activity against human PLC/PRF/5 cells after 2 weeks by Giemsa staining-based inverted microscopic method; assay type: functional, cell-based
PLC-PRF-5 [22] = assay: Induction of apoptosis in human PLC/PRF/5 cells assessed as early apoptotic cells at 20 uM after 48 hrs by annexin-V-FITC/propidium iodide staining-based flow cytometric method (reference value: 5.82%); assay type: functional
PLC-PRF-5 [23] = assay: Induction of reactive oxygen species formation in human PLC/PRF/5 cells at 10 uM by DCF-DA staining-based flow cytometric method; assay type: functional, cell-based; settings: TDE = time-dependent effect
Rattus norvegicus [24] = assay: as §2; assay type: ADME, organism-based; settings: in vivo
HepG2 = assay: cells; settings: Homo sapiens, HepG2, 48 h
PLC-PRF-5 [25] = assay: Downregulation of CD13 expression in human PLC/PRF/5 cells at 10 uM after 48 hrs by flow cytometric method; assay type: functional, cell-based
PLC-PRF-5 [26] = assay: Induction of apoptosis in human PLC/PRF/5 cells assessed as late apoptotic cells at 20 uM after 48 hrs by annexin-V-FITC/propidium iodide staining-based flow cytometric method (reference value: 0.341%); assay type: functional
Mus musculus [27] = assay: Toxicity in Kunming mouse xenografted with 5-FU-resistant […] H22 cells assessed as mortality at 82 mg/kg, iv after 14 days; assay type: organism-based; settings: in vivo, 336 h
[28] = Drug metabolism in Wistar rat plasma assessed as carboxylesterase-mediated 2-((S)-2-((2S,3R)-3-amino-2-hydroxy-4-phenylbutanamido)-4-methylpentan-amido)-acetic acid formation at 80 mg/kg, iv by HPLC-MS/MS analysis; assay type: ADME, organism-based; settings: in vivo

## CC(C)C[C@H](NC(=O)[C@@H](O)[C@H](N)Cc1ccccc1)C(=O)NCCC(=O)OCn1cc(F)c(=O)[nH]c1=O
PLC-PRF-5 [1]
  pIC50: 4.23
Aminopeptidase N
  pIC50: 6.17
cells
  pIC50: 3.88

## CC(C)C[C@H](NC(=O)[C@@H](O)[C@H](N)Cc1ccccc1)C(=O)NCC(=O)O.Cl
[2]
  Drug metabolism: Metabolite_Detected
[3]
  half-life: 1.23 h
Rattus norvegicus [4]
  VRT: 3.797 hr2
Aminopeptidase N
  pIC50: 6.22
[5]
  AUC(0-inf): 36200 ng·h/mL
[6]
  clearance: 36.8 mL/min/kg
[7]
  Cmax: 8570 ng/mL
[8]
  MRT inf: 3.22 h
[9]
  Vd: 3.93 L/kg

## CC(C)C[C@H](NC(=O)[C@@H](O)[C@H](N)Cc1ccccc1)C(=O)NCC(=O)OCn1cc(F)c(=O)[nH]c1=O.Cl
PLC-PRF-5 [10]
  viability at 20 µM: 71.1%
[11]
  pIC50: 4.70
HCT-116
  pIC50: 4.59
PLC-PRF-5 [12]
  Activity: 0%
[13]
  Drug metabolism: Metabolite_Detected
H22 [14]
  Activity: Active
[15]
  Drug metabolism: Metabolite_Detected
Mus musculus [16]
  Activity: Non-Toxic
H22 [17]
  Activity: Dose-dependent effect
PLC-PRF-5 [1]
  pIC50: 4.78
A549
  pIC50: 4.82
Rattus norvegicus [18]
  beta t1/2: 0.795 h
Rattus norvegicus [4]
  VRT: 4.423 hr2
Homo sapiens
  Activity: Active
H22 [19]
  Activity: Dose-dependent effect
U-937
  pIC50: 4.99
[20]
  Drug metabolism: Metabolite_Detected
Aminopeptidase N
  pIC50: 6.74
[5]
  AUC(0-inf): 14700 ng·h/mL
Thoracic aorta
  Activity: Active
[6]
  clearance: 90.5 mL/min/kg
U-266
  pIC50: 4.50
PLC-PRF-5 [21]
  Activity: Dose-dependent effect
[7]
  Cmax: 5870 ng/mL
PLC-PRF-5 [22]
  Activity: 24.2%
PLC-PRF-5 [23]
  Activity: Tde
Rattus norvegicus [24]
  MRT: 2.576 h
HepG2
  pIC50: 4.85
PLC-PRF-5 [25]
  Activity: Active
PLC-PRF-5 [26]
  Activity: 4.69%
Mus musculus [27]
  Activity: Non-Toxic
[9]
  Vd: 6.23 L/kg
cells
  pIC50: 4.63
[28]
  Drug metabolism: Metabolite_Detected

## CC(C)C[C@H](NC(=O)[C@@H](O)[C@H](N)Cc1ccccc1)C(=O)NCCCC(=O)OCn1cc(F)c(=O)[nH]c1=O
PLC-PRF-5 [1]
  pIC50: 4.28
Aminopeptidase N
  pIC50: 6.16
cells
  pIC50: 3.96
